Data taken from patent publication US6432913B1, “Polypeptide of protein p140 and DNAs encoding it” (Ono Pharmaceutical Co., Ltd., priority 1993, dated 2002).

Experiments:
[1] = system: healthy rats; assay: Amylin administration to healthy rats for 7 days; format: in vivo, rat; conditions: amylin 0.1 mg/kg, i.p., t.i.d.
Excerpt: (§1) These observations were accompanied by decreases in both incidences, glucose transporter 4 (Glut 4) quantity and synthesized glycogen content (less than 50% decrease compared to that of control group) with 1.7-fold increase in the blood glucose content.

[2] = system: L6 cells; assay: Glucose uptake in L6 cells with amylin administration; format: cell-based; conditions: L6 cells of rat skeletal muscle myoblasts
Excerpt: as §1

[3] = system: protein p140; assay: Tyrosine phosphorylation of p140 in human HepG2 hepatocytes; format: cell-based; conditions: for p140 tyrosine phosphorylation (band content of pp140): human HepG2 cells, amylin 100 pM 24 hr before insulin where added
[4] = system: protein p140; assay: Tyrosine phosphorylation of p140 in rat FaO hepatocytes; format: cell-based; conditions: for p140 tyrosine phosphorylation (band content of pp140): rat FaO cells, amylin 100 pM 24 hr before insulin where added
Protocol: (§2) Using the Dubecco's modified Eagle's medium (containing 10% BFS), various cells (1×10^5 cells/dish) were incubated at 37° C. under 5% CO2 atmosphere for 5˜8 days. The cells were skeletal muscle cells differentiated from skeletal muscle myoblasts. The differentiated cells previously treated in serum-free Dulbecco's modified Eagle's medium for 4 hr was incubated with and without amylin (100 pM) before further incubation for 24 hr. Cultures treated with insulin (100 nM) thereafter were incubated for a fixed interval (10 or 60 min). After the cultures were rinsed with ice-cold phosphate buffer, cells were lysed with phosphate buffer containing 0.5% octa (ethylene glycol) ether (C12E8). The pp140 was recovered by sepharobeads bound with phosphothyrosine antibody (Transformation Corp.) prior to elution and detection with phenyl phosphate and western blotting method, respectively. The band content of pp140 was determined by a densitometer using purified pp140 as the standard. In the Table 1, cultures were treated with amylin (100 pM) 24 hr before insulin (100 nM) was added.

[5] = system: protein p140; assay: Tyrosine phosphorylation of p140 in human A673 muscle cells; format: cell-based; conditions: for p140 tyrosine phosphorylation (band content of pp140): human A 678 cells, amylin 100 pM 24 hr before insulin where added
Protocol: as §2

[6] = system: protein p140; assay: Tyrosine phosphorylation of p140 in rat L6 cells (anti-phosphotyrosine recovery, western blot, densitometry); format: cell-based; conditions: for p140 tyrosine phosphorylation (band content of pp140): rat L6 cells, amylin 100 pM 24 hr before insulin where added
Protocol: as §2

[7] = system: protein p140; assay: Effects of various test compounds on p140 phosphorylation in rat L6 cells; format: cell-based; set-up: dose or concentration left out as unconfirmed
Protocol: Rat L6 cells (1×10^5 cells/dish) were incubated in the Dulbecco's modified Eagle's medium (containing 10% BFS) at 37° C. under 5% CO2 atmosphere for 8 days. The cells used were skeletal muscle myoblast-differentiated muscle cells. After treating the differentiated skeletal muscle cells in serum-free Dulbecco's modified Eagle's media for 4 hr, various test compounds (10 mM; except insulin,1 mM) were added before the cultures were further incubated for a fixed interval. After the cultures were rinsed with ice-cold phosphate buffer, cells were lysed with phosphate buffer containing 0.5% octa (ethylene glycol) ether (C12E8). The pp140 was recovered by cephalobeads bound with phosphotyrosine antibody (Transformation Corp.) prior to elution and detection with phenyl phosphate and western blotting method, respectively. The band content of pp140 was determined by a densitometer using purified pp140 as the standard.

[8] = system: Rat L6 cells; assay: Enhancement activity on glucose uptake (3H-2-deoxyglucose) in rat L6 cells; format: cell-based; conditions: 2 hr, 5 mM 3H-2-deoxyglucose, initial 3 min
Protocol: Rat L6 cells (1×10^5 cells/dish) were incubated in Dulbecco's modified Eagle's medium (containing 10% BFS) at 37° C. under 5% C02 atmosphere for 8 days. The cells used were skeletal muscle myoblast-differentiated skeletal muscle cells. After treating the differentiated skeletal muscle cells in serum-free Dulbecco's modified Eagle's medium for 2 hr, various test compounds (10 mM; except insulin,l mM) were added before the cultures were further incubated for a fixed interval of 2 hr. Cultures thereafter treated with Crebs-Ringer phosphate buffer (pH: 7.4) for 20 min were further incubated with 5 mM ^3H-2-deoxyglucose (0.05 mCi/ml). At the initial 3 min after incubation, the uptake radioactivity content in cells was determined with a liquid syntillation counter.

[9] = system: streptozotocin (STZ)-induced diabetic rats; assay: Effects of vitamin K5 on diabetes in streptozotocin (STZ) rats; format: in vivo, rat; conditions: vitamin K5 i.p. once daily for 3 consecutive days
Protocol: The diabetes model using streptozotocin (STZ) was established in male Wistar rats (STZ rats). After administering various intraperitoneal (i.p.) daily doses of vitamin K5 for 3 consecutive days in STZ rats (one administration per day), the glucose, neutral fat and cholesterol contents in blood were determined. Accordingly, STZ and normal rats were administered with the vehicle (physiological saline) at identical daily rate and duration prior to determination of similar hematic indices mentioned above. In addition, rats administered subcutaneously (s.c.) with insulin (8 U/kg) daily (one administration per day) for 3 consecutive days were used as positive controls.

| Compound | Amount of tyrosine phosphorylated p140 ([7]; 0 min) [copy/cell] | Amount of tyrosine phosphorylated p140 ([7]; 3 min) [copy/cell] | Amount of tyrosine phosphorylated p140 ([7]; 10 min) [copy/cell] | Amount of tyrosine phosphorylated p140 ([7]; 60 min) [copy/cell] | Activity on glucose uptake [8] [pmol/mg protein/min] | also measured |
| --- | --- | --- | --- | --- | --- | --- |
| amylin | – | – | – | – | – | glucose transporter 4 (Glut 4) quantity [1]: decreases; increase in the blood glucose content [1]: 1.7 fold; insulin receptor population [1]: dramatic decreases; secreted insulin quantity [1]: dramatic decreases; synthesized glycogen content, decrease compared to control group [1]: less than 50%; glucose uptake in the cells [2]: decreased glucose uptake; Effect on insulin-induced incidence of pp140 ([3]; human hepatocytes (HepG2 cells)): similarly confirmed; Effect on insulin-induced incidence of pp140 ([4]; rat hepatocytes, FaO cells): similarly confirmed; Effect on insulin-induced incidence of pp140 ([5]; human muscle cells (A673 cells)): similarly confirmed; Effect on insulin-induced incidence of pp140 ([6]; rat L6 cells incubated with insulin within 10 min): antagonized |
| O=C1NC(=S)SC1c1ccccc1 (stereo not shown) [5-phenylrhodanine] | 350 | 1600 | 1250 | 650 | 76.8 | – |
| CC(C)CCOc1ccc(C=C2SC(=S)NC2=O)cc1 [5-(4-isoamyloxybenzylidene)rhodanine] | 400 | 3200 | 2250 | 1600 | 98.4 | – |
| Cc1cc(N)c2ccccc2c1O [Vitamin K5, 4-amino-2-methyl-1-naphthol] | 400 | 3850 | 2850 | 1600 | 67.5 | cholesterol content in blood [9]: elicited recovery of changes; glucose content in blood [9]: elicited recovery of changes; neutral fat content in blood [9]: elicited recovery of changes |
| CC1=CC(=O)c2ccccc2C1=O [Vitamin K3, 2-methyl-1,4-naphthoquinone] | 350 | 3650 | 1800 | 750 | 60.9 | – |
| Insulin | 350 | 1850 | 2600 | 1650 | 106.8 | p140 tyrosine phosphorylation (band content of pp140) ([3]; insulin 100 nM for 10 min): 2100; p140 tyrosine phosphorylation (band content of pp140) ([3]; insulin 100 nM for 60 min): 1200; p140 tyrosine phosphorylation (band content of pp140) ([4]; insulin 100 nM for 10 min): 2000; p140 tyrosine phosphorylation (band content of pp140) ([4]; insulin 100 nM for 60 min): 1400; p140 tyrosine phosphorylation (band content of pp140) ([5]; insulin 100 nM for 10 min): 2500; p140 tyrosine phosphorylation (band content of pp140) ([5]; insulin 100 nM for 60 min): 1900; p140 tyrosine phosphorylation (band content of pp140) ([6]; insulin 100 nM for 10 min): 2400; p140 tyrosine phosphorylation (band content of pp140) ([6]; insulin 100 nM for 60 min): 1000 |
